What all share (format): cell-based
One experiment deals with Proteus morgani. The experiment can be described thus: Serial dilution-tube method, MIC. To be noted: brain heart infusion broth; read-out: Minimum Inhibitory Concentration.
Experiment [1] has as its system Escherichia coli. Description: Serial dilution-tube method, MIC. To be noted: Escherichia coli; brain heart infusion broth; read-out: Minimum Inhibitory Concentration.
In another experiment the test system is Serratia marcescens. Description: Serial dilution-tube method, MIC. To be noted: Serratia marcescens; brain heart infusion broth; read-out: Minimum Inhibitory Concentration.
Experiment [2] has as its system Staphylococcus aureus (Antibiotic Resistant). Description: Serial dilution-tube method, MIC. To be noted: Staphylococcus aureus, brain heart infusion broth, read-out: Minimum Inhibitory Concentration.
The subject of the next experiment is Pseudomonas aeruginosa. The experiment can be described thus: Serial dilution-tube method, MIC. Particulars: Pseudomonas aeruginosa; brain heart infusion broth; read-out: Minimum Inhibitory Concentration.
A further experiment relates to Klebsiella pneumoniae. The experiment can be described thus: Serial dilution-tube method, MIC. Particulars: Klebsiella pneumoniae; brain heart infusion broth; read-out: Minimum Inhibitory Concentration.
In experiment [3] the test system is Escherichia coli (Antibiotic Resistant). The experiment can be described thus: Serial dilution-tube method, MIC. Particulars: Escherichia coli, brain heart infusion broth, read-out: Minimum Inhibitory Concentration.
The test system of the next experiment is Enterobacter cloacae. The experiment can be described thus: Serial dilution-tube method, MIC. To be noted: Enterobacter cloacae; brain heart infusion broth; read-out: Minimum Inhibitory Concentration.
The test system of experiment [4] is Staphylococcus aureus. The experiment can be described thus: Standard disc-plate method, zone of inhibition. To be noted: Staphylococcus aureus; 25 microgram discs. The gist of the method:
(§1)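 Seeded agar plates carried dried paper discs (6.25 mm) impregnated from 1 mg/ml compound solution, about 25 microg per disc. Incubation ran overnight at 35°-37° C before inhibition zones were measured.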

Another experiment deals with Bacillus subtilis. Description: Standard disc-plate method, zone of inhibition. To be noted: Bacillus subtilis; 25 microgram discs. The gist of the method: as §1
In the next experiment the test system is Micrococcus luteus. The experiment can be described thus: Standard disc-plate method, zone of inhibition. To be noted: Micrococcus luteus; 25 microgram discs. The essentials:
as §1

Experiment [5] concerns Escherichia coli. Description: Standard disc-plate method, zone of inhibition. To be noted: Escherichia coli, 25 microgram discs. The gist of the method: as §1
Another experiment has as its system Vibrio percolans. The experiment can be described thus: Standard disc-plate method, zone of inhibition. Particulars: Comamonas terrigena, 25 microgram discs. The essentials: as §1
Experiment [6] has as its system Staphylococcus aureus (Antibiotic Resistant). Description: Standard disc-plate method, zone of inhibition. To be noted: Staphylococcus aureus; 25 microgram discs; antibiotic resistant. The essentials: as §1
The test system of a further experiment is Citrobacter diversus. The experiment can be described thus: Serial dilution-tube method, MIC. Particulars: Citrobacter koseri; brain heart infusion broth; read-out: Minimum Inhibitory Concentration.
Experiment [7] deals with Staphylococcus aureus. Description: Serial dilution-tube method, MIC. Particulars: Staphylococcus aureus; brain heart infusion broth; read-out: Minimum Inhibitory Concentration.

Structures are written as SMILES.

What is called zone of inhibition is the size of the clear area around the sample on an inoculated plate. As for `CC1=C(C(=O)OCOC(=O)C(C)(C)C)N2C(=O)CC2C1=O` (stereo not shown) [H H POM CH3 O II, Pivaloyloxymethyl 2-Methyl-1-oxocarbapen-2-em-3-carboxylate], the MIC (with Proteus morgani; in the experiment on Escherichia coli [1]; in the experiment with Serratia marcescens; in experiment [2]; in the experiment with Pseudomonas aeruginosa; with Klebsiella pneumoniae) was greater than 200 µg/mL each time. Further, the MIC (in experiment [3]; in the experiment on Enterobacter cloacae; with Citrobacter diversus; in the experiment with Staphylococcus aureus [7]) was greater than 200 µg/mL throughout. For the same molecule, the zone of inhibition at 25 µg/disc with Staphylococcus aureus [4] was determined as 22 mm; in the experiment on Bacillus subtilis it was 37 mm; with Micrococcus luteus it was 26 mm; in the experiment with Escherichia coli [5], 0 mm; in the experiment with Vibrio percolans, 14 mm; in experiment [6] it was 18 mm.

For the origin of these results see patent US4348264A, “Photocatalyzed process for producing carbapenams and carbapen-2-ems” (Pfizer Inc., priority 1981, dated 1982).
